From US20030113814A1, “Identification of modulators of gpr55 activity” (priority 2002, published 2003) come the findings set out here.

Experiment [1] concerns the target T1, Human GPR55 (Homo sapiens, UniProt Q9Y2T6).
T1 construct: expressed in transfected cells; host or cells: Saccharomyces cerevisiae strains MMY14-MMY24 (STE2 and GPA1 deleted, Gpa1/Gα chimeras integrated)
As to the kind of experiment: Yeast FUS1-lacZ/FUS1-HIS3 reporter gene induction assay, yeast expressing p426GPD-GPR55 with Gpa1/Gα chimeras. The format is cell-based. The text has this:
These strains contain a series of genetic modifications to enable coupling of heterologously expressed receptors to the expression of two reporter genes, via the endogenous yeast pheromone response signal transduction pathway. Importantly, the gene encoding the endogenous yeast pheromone receptor, STE2, has been deleted from these strains such that cells containing p426GPD-GPR55 will express GPR55 protein in place of Ste2 receptor protein. Furthermore, the gene encoding the G-protein α-subunit involved in the pheromone response, GPA1, has been deleted from these strains. To enable receptor coupling in strains MMY14-24, plasmid constructs encoding modified versions of GPA1 have been stably integrated into the yeast chromosome and are expressed in place of endogenous yeast GPA1. […] Generally, the modifications made to Gpa1 facilitate coupling of heterologously expressed receptors to the yeast pheromone response pathway.
In vivo assays of reporter gene induction were carried out by suspending yeast cells transformed as described above to a density of 0.02 OD600/ml in 200 μl SC-glucose (2%) medium lacking tryptophan, uracil and histidine. This medium was supplemented with 10 mM 3-aminotriazole and the β-galactosidase (lacZ) substrate chlorophenolred-β-D-galactopyranoside (CPRG; Boehringer Mannheim) to a concentration of 0.1 mg/ml. […] To visualise the yellow to red colour change reaction occurring on degradation of CPRG due to β-galactosidase, the medium was buffered to pH 7 with 0.1 M sodium phosphate. The assay was conducted in flat-bottomed sterile 96-well microtitre plates. Plates were incubated for 24 hours at 30° C. without agitation, and absorbance at 570 nm was determined using a Spectrofluor microtitre plate reader (Tecan).
(Reporter assays use an easily measured gene product as a stand-in for the process of interest.)

Experiment [2] deals with T2, EDG1 (Homo sapiens, UniProt P21453).
T2 construct: expressed in transfected cells; host or cells: Saccharomyces cerevisiae reporter strain (inferred from context)
As to the kind of experiment: Yeast reporter gene assay with unrelated receptor. Type of experiment: cell-based.

Experiment [3] deals with control cells transformed with the vector p426GPD in combination with Gpa1/Gα13 and therefore lacking GPR55. As to the kind of experiment: Yeast reporter gene assay in control cells transformed with vector p426GPD (lacking GPR55). The format is cell-based, Saccharomyces cerevisiae. The following applies: data not shown. The text has this: A system of yeast strains MMY14-MMY24 has been described previously (Olesnicky et al, EMBO J. 18, 2756-2763, 1999, Brown et al, Yeast 16, 11-22, 2000). These strains contain a series of genetic modifications to enable coupling of heterologously expressed receptors to the expression of two reporter genes, via the endogenous yeast pheromone response signal transduction pathway. Importantly, the gene encoding the endogenous yeast pheromone receptor, STE2, has been deleted from these strains such that cells containing p426GPD-GPR55 will express GPR55 protein in place of Ste2 receptor protein. Furthermore, the gene encoding the G-protein α-subunit involved in the pheromone response, GPA1, has been deleted from these strains. To enable receptor coupling in strains MMY14-24, plasmid constructs encoding modified versions of GPA1 have been stably integrated into the yeast chromosome and are expressed in place of endogenous yeast GPA1. […]
In vivo assays of reporter gene induction were carried out by suspending yeast cells transformed as described above to a density of 0.02 OD600/ml in 200 μl SC-glucose (2%) medium lacking tryptophan, uracil and histidine. […] Plates were incubated for 24 hours at 30° C. without agitation, and absorbance at 570 nm was determined using a Spectrofluor microtitre plate reader (Tecan).

T1 sequence (Q9Y2T6 whole entry): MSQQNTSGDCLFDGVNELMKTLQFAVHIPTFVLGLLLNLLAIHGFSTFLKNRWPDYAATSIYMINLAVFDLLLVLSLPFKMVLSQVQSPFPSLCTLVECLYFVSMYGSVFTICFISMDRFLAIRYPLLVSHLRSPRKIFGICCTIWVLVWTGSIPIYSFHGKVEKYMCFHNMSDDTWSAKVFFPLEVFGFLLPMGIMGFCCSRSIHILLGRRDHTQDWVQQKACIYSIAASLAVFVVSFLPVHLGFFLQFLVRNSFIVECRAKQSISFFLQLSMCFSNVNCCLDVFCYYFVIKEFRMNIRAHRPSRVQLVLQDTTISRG
T2 sequence (P21453 whole entry): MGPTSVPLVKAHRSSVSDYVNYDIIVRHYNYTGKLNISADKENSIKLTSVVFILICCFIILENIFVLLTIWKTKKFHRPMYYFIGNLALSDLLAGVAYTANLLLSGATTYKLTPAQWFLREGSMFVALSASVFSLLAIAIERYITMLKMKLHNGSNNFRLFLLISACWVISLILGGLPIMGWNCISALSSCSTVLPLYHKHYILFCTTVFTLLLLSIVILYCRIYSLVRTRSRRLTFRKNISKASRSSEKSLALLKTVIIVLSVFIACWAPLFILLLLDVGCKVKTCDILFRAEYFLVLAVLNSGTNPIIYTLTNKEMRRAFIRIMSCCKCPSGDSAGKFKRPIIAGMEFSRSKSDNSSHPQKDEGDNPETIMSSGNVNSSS

With `Cc1c(C(=O)NN2CCCCC2)nn(-c2ccc(Cl)cc2Cl)c1-c1ccc(I)cc1` [AM251, N-(piperidin-1-yl)-5-(4-iodophenyl)-1-(2,4-dichlorophenyl)-4-methyl-1H-pyrazole-3-carboxamide], the “agonism at GPR 55” value in experiment [1] (GPR 55 expressed in yeast containing Gpa1/GαI3, Gαi2 and Gαi3 chimeras (FIG. 3 legend)) is given as “acts as an agonist”. In experiment [1] (Gpa1/Gα12), the “GPR55 activity in strain expressing Gpa1/Gα12” value is recorded as “Activity has also been observed”. Further, the “GPR55 activity in strains expressing Gpa1/Gαi2 or Gpa1/Gαi3” value in experiment [1] (Gpa1/Gαi2 or Gpa1/Gαi3 (FIG. 3)) is recorded as “weaker activities”. In addition, the reporter gene activity entry in experiment [1] (yeast co-expressing p426GPD-GPR55 and Gpa1/Gα13, response dependent on concentration (FIG. 3)) is “significant increase”. Also, the “activation of GPR55” value in experiment [1] (yeast reporter assay) is “up to 60 fold over background”. In experiment [2], the “activation of unrelated receptors (EDG1)” value is reported as 1.3 fold over background. Moreover, in experiment [3], the “increase in reporter gene activity in control cells” value is listed as “not observed”.

For the compound `Cc1c(C(=O)NN2CCOCC2)nn(-c2ccc(Cl)cc2Cl)c1-c1ccc(I)cc1` [AM281, 1-(2,4-dichlorophenyl)-5-(4-iodophenyl)-4-methyl-N-4-morpholinyl-1H-pyrazole-3-carboxamide], the “activity at GPR55” value in experiment [1] (tested at GPR55 in yeast, data not shown) is reported as “appeared active”.
